From patent publication US8440595B2, “Fungicides” (priority 2007, dated 2013)

Assays:
Septoria nodorum = assay: leaf disk assay, Septoria nodorum (wheat glume blotch), preventive; assay type: in vivo; conditions: for Efficacy (%): wheat leaf segments, four days after inoculation

Row | Compound | Efficacy (%) (Septoria nodorum; Concentration 60 ppm) | Efficacy (%) (Septoria nodorum; Concentration 200 ppm) | fungicidal activity against Septoria nodorum compared with the compound from the state of the art (Septoria nodorum; both application rates (200 and 60 ppm)) | melting point
1 | CC#CC(C)(C)NC(=O)C(Oc1cc(Br)c2ncc(Br)cc2c1)SC (stereo not drawn) [2 (Table 23), reference compound] | 0% | 0% | – | –
2 | CC#CC(C)(C)NC(=O)C(Oc1cc(Br)c2ncc(I)cc2c1)SC (stereo not drawn) [2(5), 2-(8-bromo-3-iodo-quinolinyl-6-oxy)-2-methylthio-N-(2-methylpent-3-yn-2-yl) acetamide] | 80% | 100% | substantially better fungicidal activity | 161 to 162 °C
